The text below walks through data of patent publication US5023265A, “Substituted 1-H-pyrrolopyridine-3-carboxamides” (Schering Corporation, priority 1990, dated 1991).

Like-named read-outs stand apart in the source and are kept apart here.

Experiment [1] relates to Reversed Passive Arthus Reaction (RPAR) in the rat pleural cavity. Put plainly: RPAR-Pleural Cavity Assay. In kind it is in vivo, male rats. To be noted: for inhibition in vivo at 25 mg/kg / inhibition in vivo at 50 mg/kg: Rattus norvegicus, 4 hours. The method, then:
RPAR-Pleural Cavity Assay
Groups of 4 male rats were injected in the penile vein with antigen (1 mg BSA in 0.2 mL of saline per rat) and 0.5 hour later injected in the pleural cavity with antibody (1.0 mg antibody protein in the IgG fraction of rabbit anti-BSA in 0.2 mL). […] After 4 hours the animals were killed with CO2, and the pleural cavities were opened and the exudate drained into a graduated conical glass centrifuge tube containing indomethacin (1.8 μg) and nordihydroguaiaretic acid (NDGA) (15 μg) to block ex vivo metabolite synthesis. The volume of the exudate was measured. The cavity was then washed out with saline-EDTA to achieve a final volume of 5.0 mL. The number of cells were determined in a Coulter Counter. The cells were spun-down (1000×g) and the exudate supernatant was added to 4 volumes of 95% ethanol and samples were kept on ice for 30 minutes. After removal of the protein precipitate (2,500×g) the ethanol extract of the exudate was dried under N2 and then stored at -20° C. For radioimmunoassay (RIA) analysis the samples were redissolved in water to a volume of 1 mL per rat. Utilizing internally spiked samples, recovery of TXB2 (tritiated thromboxane B2) and LTE4 (tritiated leukotriene-E4) from exudates was determined to be 84±2% (SEM) and 89±2% (N=4), respectively. Exudate samples were directly assayed in duplicate with the commercial ^3 H-TXB2 RIA kit from New England Nuclear and the ^3 H-LTC4 /D4 /E4 kit from Amersham. The assay was validated using reversed-phase HPLC analysis of LTs in the standard procedure described by M. W. Musch, R. W. Bryant, C. Coscollaela, R. F. Myers and M. I. Siegel, Prostaglandins, Vol. 29, pp 405-430 (1985). Samples of ethanol exudate extract were "spiked" with ^3 H-LTs to follow HPLC purification and recovery.

Experiment [2] relates to Reversed Passive Arthus Reaction (RPAR) in the rat paw. Kind of experiment: RPAR-Paw Assay (Reversed Passive Arthus Reaction, rat paw). In kind it is in vivo, male Wistar/Lewis inbred albino rats. To be noted: oral, paw volume 2 hours postchallenge, read-out: RPAR-Paw % Inhib. On the procedure:
In order to determine the antiinflammatory activity by the reverse passive Arthus response, male Wistar/Lewis inbred albino rats weighing 180-200 g were used. The rats were housed three animals per cage and fasted 24 hours prior to and during the study. Water was allowed ad libitum.
All reagents and drugs were prepared prior to the study. Crystallized and lyophilized bovine serum albumin (BSA) was solubilized in cold, sterile, pyrogen-free saline (PFS), 10 mg/mL. Lyophylized antibovine serum albumin (anti-BSA), the IgG fraction, was suspended or solubilized in an aqueous solution of methylcellulose (MC) with a homogenizer prior to administration.
One hour prior to sensitization with BSA, groups of animals (minimum six per group) were given drug in MC by gavage according to body weight (1.0 mL/100 g). Controls were given MC alone, and a drug standard, indomethacin, was usually included in each assay. Drugs were prepared so as to provide a dose for a 200 g animal, which was equivalent to the milligram per kilogram dose for the experiment. Each rat received an oral dose in a volume of approximately 2.0 mL. One hour after dosing, the animals were lightly anesthetized with ether and "sensitized" by injection into the penile vein with 0.2 mL of PFS containing 1 mg of BSA. One hour later, the animals were "challenged" in the right hind paw with subplantar injections of 0.2 mL PFS pyrogen-free salin containing 0.1 mg of anti-BSA bovine serum albumin. Immediately after the subplantar injections, the right hand paw was immersed (to the lateral maleolus) into the mercury well of a plethysmograph. The volume of mercury displaced was converted to weight and recorded. This value was considered to be the control reading for the animal. Paw volumes were also recorded with a plethysmograph during the development of the inflammation at 2 hours postchallenge.
Results were expressed by the change in paw volume from the control reading for each animal to that recorded 2 hours postchallenge. All drug-treated groups were compared to the MC control for significant differences by using analysis of variance (Duncan and Dunnetts). Differences from control in drug-treated groups were expressed as percent inhibition.
In order to determine the dose required to inhibit the inflammatory response by 50% (ED50), a minimum of three and a maximum of five points were included in the assay. The ED50 and the relative potency to a drug standard, indomethacin, were determined by linear regression analysis. (J. Med. Chem., 1984, Vol. 27, No. 1, 27). Results for representative compounds of the invention are shown in Columns 3 and 4 of Table 1 below.

The subject of another experiment is cyclooxygenase. Put plainly: Rat CO/LO Inhibition: cyclooxygenase metabolite HHT in rat pleural neutrophils. In kind it is cell-based, male Wistar-Lewis rats. To be noted: 5 M × 10^-5, rat neutrophils. On the procedure: Male Wistar-Lewis rats were injected iv with 5 mg of BSA in 0.2 mL of pyrogen-free saline followed by an intrapleural injection of 500 μg of the IgG fraction of rabbit anti-BSA in 0.2 mL of pyrogen-free saline, all under light anesthesia. After 4 hours the pleural cavity exudate, consisting of 85-95% neutrophils, was removed. Neutrophils were isolated from the pleural exudates by centrifugation at 4° C. for 10 minutes at 200 g. The cell pellet was briefly resuspended in 17 mM Tris-HCl buffer, pH 7.2, containing 0.75% NH4 Cl in order to lyse red cells, followed by centrifugation at 4° C. for 5 minutes at 200 g. The pelleted neutrophils were rewashed in 50 mM Tris-HCl, pH 7.4, containing 100 mM NaCl and 1 mM CaCl2, for a final cell count of approximately 5×10^6 intact neutrophils/0.1 mL of suspension.
Arachidonic acid metabolism via cyclooxygenase and 5-lipoxygenase was determined by preincubating the above cell suspension with the test compound for 4 minutes at room temperature and then adding 0.1 mL of the preincubated cells to assay tubes. The final assay mixture (0.1 mL) contained 40 μM [1-^14 C]arachidonic acid, 10 μM calcium A23187 ionophore and 0.1% BRIJ®56 detergent. After 1 minutes at 37° C., assays were terminated by the addition of 2.4 mL of a CHCl3 /CH3 OH (1:1 v/v) mixture and 0.9 mL of 0.1% HCOOH. The suspension was vortexed, immediately cooled on ice, and centrifuged and the organic layer withdrawn. The extract was evaporated and resuspended in 0.1 mL of CHCl3 /CH3 OH (1:2, v/v) for spotting on silica gel TLC plates (without gypsum). Development was with petroleum ether/diethylether/acetic acid (40:60:1, v/v/v). Products were located by autoradiography and the appropriate regions scraped and counted in a liquid scintillation counter. The 5-lipoxygenase metabolite 5-hydroxy-6,8,11,14-eicosatetraenoic acid (5-HETE) and the cyclooxygenase metabolite 12-hydroxy-[…] (HHT) were identified by cochromatography with authentic standards on TLC plates. Results are reported as percent inhibition of cyclooxygenase and lipoxygenase metabolite formation. (Myers, R. F.; Siegel, M. I., Biochem. Biophys. Res. Commun., 1983, 112, 586.) Results with representative compounds of the invention are shown in Columns 10, 11 and 12 of Table 1 below.

Experiment [3] deals with Adjuvant-Induced Arthritis in Rats. Put plainly: Adjuvant-Induced Arthritis in Rats (AAR). As to conditions: Rattus norvegicus, 504 h; dosed 1 hour prior to adjuvant, then 21 consecutive days. In kind it is in vivo.
Setting [4] is: read-out: RPAR-Pleural Cavity % Inhibition Cells.
The mark [5] stands for this setting: exudate volume, read-out: RPAR-Pleural Cavity % Inhibition Fluid.
The mark [6] stands for this setting: 50 mg/kg, read-out: RPAR-Pleural Cavity % Inhibition Cells.
[7] abbreviates: 50 mg/kg, exudate volume, read-out: RPAR-Pleural Cavity % Inhibition Fluid.

With `CC(C)(C)NC(=O)c1c(O)n(-c2ccccc2)c2ncccc12`, the results for the inhibition in vivo at 25 mg/kg in experiment [1] (setting [4]), in experiment [1] (setting [5]) and in experiment [2] were 66%, 23% and 49%, respectively.
`O=C(Nc1ccccc1)c1c(O)n(-c2ccc(Cl)cc2)c2ncccc12`: the results for the inhibition in vivo at 25 mg/kg in experiment [1] (setting [4]) and in experiment [1] (setting [5]) were 51% and 18%, respectively. Further, in experiment [2], the inhibition in vivo at 50 mg/kg was found to be 56%. Besides, the “Cyclooxygenese/lipoxygenese % Inhib. HHT” value in the experiment on cyclooxygenase was found to be 96%.
For the molecule `Cc1cc(NC(=O)c2c(O)n(-c3ccccc3)c3ncccc23)no1`, the inhibition in vivo at 25 mg/kg worked out at 0% in experiment [1] (setting [4]), 0% in experiment [1] (setting [5]) and 10% in experiment [2]. Moreover, in the experiment with cyclooxygenase, the “Cyclooxygenese/lipoxygenese % Inhib. HHT” value is 45%.
As for `O=C(Nc1ccccc1)c1c(O)n(Cc2ccccc2)c2ncccc12`, the inhibition in vivo at 25 mg/kg in experiment [1] (setting [4]) is 36%; in experiment [1] (setting [5]), 76%; in experiment [2], 42%. The ED50 in experiment [3] is 33 mg/kg. Also, the “Cyclooxygenese/lipoxygenese % Inhib. HHT” value with cyclooxygenase was 34%.
As to `Cn1c(O)c(C(=O)Nc2ccccc2)c2cccnc21`, the figures for the inhibition in vivo at 25 mg/kg in experiment [1] (setting [4]) and in experiment [1] (setting [5]) were 45% and 5%, respectively. Besides, in the experiment with cyclooxygenase, the “Cyclooxygenese/lipoxygenese % Inhib. HHT” value turned out to be 0%.
For `O=C(O)c1cc(NC(=O)c2c(O)n(-c3ccccc3)c3ncccc23)ccc1O`, the inhibition in vivo at 25 mg/kg in experiment [1] (setting [4]) was 0%; in experiment [1] (setting [5]), 0%; in experiment [2] it was 4%.
As to `O=C(Nc1ccccc1)c1c(O)n(-c2cccc(C(F)(F)F)c2)c2ncccc12`, the inhibition in vivo at 25 mg/kg in experiment [1] (setting [4]) and in experiment [1] (setting [5]) was 0% throughout. Besides, the inhibition in vivo at 50 mg/kg in experiment [2] stood at 60%. Further, in the experiment on cyclooxygenase, the “Cyclooxygenese/lipoxygenese % Inhib. HHT” value was found to be 56%.
As for `O=C(Nc1ccccc1)c1c(O)n(-c2ccccc2)c2ncccc12`, in experiment [1] (50 mg/kg, LTE4 in exudate by RIA), the “RPAR-Pleural Cavity % Inhibition LTE4” value was found to be 59%. In experiment [1] (50 mg/kg, TXB2 in exudate by RIA), the “RPAR-Pleural Cavity % Inhibition TXB2” value came out at 100%. The inhibition in vivo at 25 mg/kg in experiment [1] (setting [4]) was determined as 56%; in experiment [1] (setting [5]), 49%; in experiment [2], 60%. Moreover, the inhibition in vivo at 50 mg/kg was determined as 61% in experiment [1] (setting [6]) and 27% in experiment [1] (setting [7]). Moreover, the ED50 in experiment [3] is 9 mg/kg. Further, the “Cyclooxygenese/lipoxygenese % Inhib. HHT” value in the experiment with cyclooxygenase is 93%.
As for `O=C(Nc1cccc(C(F)(F)F)c1)c1c(O)n(-c2ccccc2)c2ncccc12`, the values for the inhibition in vivo at 25 mg/kg in experiment [1] (setting [4]), in experiment [1] (setting [5]) and in experiment [2] were 22%, 0% and 41%, respectively. For the same molecule, in the experiment on cyclooxygenase, the “Cyclooxygenese/lipoxygenese % Inhib. HHT” value was 60%.
For `O=C(Nc1ccccc1)c1c(O)n(Cc2ccc(F)cc2)c2ncccc12`, in that order: 30%, 46%, 32% and 57%.
For `O=C(Nc1ccccc1)c1c(O)[nH]c2ncccc12`, the inhibition in vivo at 25 mg/kg in experiment [2] was found to be 22%. Also, the “Cyclooxygenese/lipoxygenese % Inhib. HHT” value in the experiment on cyclooxygenase amounted to 0%.
Take `O=C(Nc1ccccn1)c1c(O)n(-c2ccccc2)c2ncccc12`: in experiment [2], the inhibition in vivo at 50 mg/kg was 26%. Further, the “Cyclooxygenese/lipoxygenese % Inhib. HHT” value with cyclooxygenase was found to be 78%.
Take `O=C(Nc1ccc(F)cc1F)c1c(O)n(-c2ccccc2)c2ncccc12`: in experiment [2], the inhibition in vivo at 50 mg/kg worked out at 33%. For the same molecule, in the experiment with cyclooxygenase, the “Cyclooxygenese/lipoxygenese % Inhib. HHT” value came out at 96%.
As to `CC(C)n1c(O)c(C(=O)Nc2ccccc2)c2cccnc21`, the inhibition in vivo at 25 mg/kg in experiment [1] (setting [4]) stood at 34%; in experiment [1] (setting [5]), 44%. For the same molecule, the inhibition in vivo at 50 mg/kg in experiment [1] (setting [6]) was found to be 65%; in experiment [1] (setting [7]), 57%.
Consider `COc1ccc(NC(=O)c2c(O)n(-c3ccccc3)c3ncccc23)cc1`, for which the results for the inhibition in vivo at 25 mg/kg in experiment [1] (setting [4]), in experiment [1] (setting [5]) and in experiment [2] were 28%, 27% and 42%, respectively.
Consider `CCCCNC(=O)c1c(O)n(-c2ccccc2)c2ncccc12`, for which the inhibition in vivo at 25 mg/kg in experiment [1] (setting [4]) came out at 19%; in experiment [1] (setting [5]), 0%; in experiment [2], 29%. Also, the “Cyclooxygenese/lipoxygenese % Inhib. HHT” value in the experiment with cyclooxygenase came to 44%.
For the molecule `CC(C)(C)n1c(O)c(C(=O)Nc2ccccc2)c2cccnc21`, the inhibition in vivo at 25 mg/kg in experiment [1] (setting [4]) was 41%; in experiment [1] (setting [5]), 26%; in experiment [2], 36%.
As to `CC(C)c1ccc(-n2c(O)c(C(=O)Nc3ccccc3)c3cccnc32)cc1`, the inhibition in vivo at 25 mg/kg was 9% in experiment [1] (setting [4]), 8% in experiment [1] (setting [5]) and 34% in experiment [2].
Consider `O=C(NCc1ccccc1)c1c(O)n(-c2ccccc2)c2ncccc12`, for which the inhibition in vivo at 25 mg/kg in experiment [1] (setting [4]), in experiment [1] (setting [5]) and in experiment [2] was 0% throughout. The “Cyclooxygenese/lipoxygenese % Inhib. HHT” value with cyclooxygenase amounted to 34%.

Broadly, the ED50 is the midpoint of the dose-response relation.
